Assay results reported in patent US9890185B2, “Urea derivatives useful as kinase inhibitors” (Respivert Limited, priority 2013, dated 2018).

What was measured:
[1] = molecular target: c-Src (Homo sapiens (Human), UniProt P12931); assay: c-Src enzyme inhibition (FRET, Z-LYTE); format: biochemical
Procedure, shortened: (§1)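 c-Src (3000 ng/mL) or Syk (2000 ng/mL) stock was preincubated with compound (4–0.004 μg/mL stocks) for 2 hr at RT. FRET peptide (8 μM stock) and ATP (800 μM c-Src, 60 μM Syk, as added) were then added for 1 hr, followed by 1 hr protease development. The coumarin/fluorescein emission ratio gave % inhibition and IC50.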

[2] = molecular target: T1, Syk (Homo sapiens (Human), UniProt P43405); assay: KINOMEscan enzyme binding assay (Syk); settings: KINOMEscan technology; read-out: Dissociation Constant, Syk
Protocol: (§2) Kinase enzyme binding activities of compounds disclosed herein may be determined using a proprietary assay which measures active site-directed competition binding to an immobilized ligand (Fabian, M. A. et al., Nature Biotechnol., 2005, 23:329-336). These assays may be conducted by DiscoverX (formerly Ambit; San Diego, Calif.). The percentage inhibition produced by incubation with a test compound may be calculated relative to the non-inhibited control.

[3] = molecular target: Lck (Homo sapiens (Human), UniProt P06239); assay: KINOMEscan enzyme binding assay (Lck); settings: KINOMEscan technology; read-out: Dissociation Constant, Lck
Chain of Lck (P06239 whole entry): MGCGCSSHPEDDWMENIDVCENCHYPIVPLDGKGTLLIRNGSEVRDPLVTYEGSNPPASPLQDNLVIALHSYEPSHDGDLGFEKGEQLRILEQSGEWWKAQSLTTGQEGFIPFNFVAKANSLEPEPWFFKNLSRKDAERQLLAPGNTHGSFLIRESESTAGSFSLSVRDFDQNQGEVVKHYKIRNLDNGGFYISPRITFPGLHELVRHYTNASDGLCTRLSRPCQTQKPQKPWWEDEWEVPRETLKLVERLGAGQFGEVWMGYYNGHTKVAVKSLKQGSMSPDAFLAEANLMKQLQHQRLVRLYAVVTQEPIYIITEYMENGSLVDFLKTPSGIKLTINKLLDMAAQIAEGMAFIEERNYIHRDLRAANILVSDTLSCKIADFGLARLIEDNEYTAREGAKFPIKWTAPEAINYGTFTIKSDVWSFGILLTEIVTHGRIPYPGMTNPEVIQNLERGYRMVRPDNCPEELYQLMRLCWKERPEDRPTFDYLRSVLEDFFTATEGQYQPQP
Protocol: as §2

[4] = system: PBMCs; assay: Cell mitosis assay in PBMCs (assay g); format: cell-based; settings: Homo sapiens, PBMC, test compound 5 μg/mL
Procedure, shortened: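 Human PBMCs from healthy donors, stimulated with 2% PHA for 48 hr, then exposed to test compounds for 20 hr, with demecolcine (0.1 μg/mL) added 2 hr before harvest. Cells fixed/permeabilised, stained for phospho-histone 3 and propidium iodide, and read by flow cytometry gated on lymphocytes. % mitosis inhibition vs 0.5% DMSO vehicle.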

[5] = molecular target: T1, Syk; assay: Syk enzyme inhibition (FRET, Z-LYTE); format: biochemical
Procedure, shortened: as §1

[6] = system: HT29 cells; assay: IL-1β-induced IL-8 release in HT29 cells (assay d); format: cell-based; settings: Homo sapiens, HT-29; IL-1β-stimulated HT29 cells; read-out: IC50 Values for Inhibition of Cytokine Release, HT29 cells IL-8
Protocol: HT29 cells, a human colon adenocarcinoma cell line, are plated in a 96 well plate (24 hrs) and pre-treated with compounds at the desired concentration for 2 hours before addition of 5 ng/mL of IL-1β (Abcam) for 24 hours. Supernatants are harvested for IL-8 quantification by Sandwich ELISA (Duo-set, R&D System). The IC50 is determined from the dose response curve.

[7] = system: PBMCs; assay: IL-2 release in CD3/CD28 stimulated PBMC cells (assay c); format: cell-based; settings: Homo sapiens, read-out: IC50 Values for Inhibition of Cytokine Release, PBMCs IL-2
Procedure, shortened: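 Sandwich ELISA of supernatant IL-2 and IFN gamma; IC50 from dose-response curve. Cells: density-gradient PBMCs from healthy subjects on plate-bound anti-CD3 0.3 μg/mL + anti-CD28 3 μg/mL, compound added, 3 d culture.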

[8] = molecular target: p38 MAPK α (Homo sapiens (Human), UniProt Q16539); assay: KINOMEscan enzyme binding assay (p38 MAPKα); settings: KINOMEscan technology; read-out: Dissociation Constant, p38 MAPK α
Chain of p38 MAPK α (Q16539 whole entry): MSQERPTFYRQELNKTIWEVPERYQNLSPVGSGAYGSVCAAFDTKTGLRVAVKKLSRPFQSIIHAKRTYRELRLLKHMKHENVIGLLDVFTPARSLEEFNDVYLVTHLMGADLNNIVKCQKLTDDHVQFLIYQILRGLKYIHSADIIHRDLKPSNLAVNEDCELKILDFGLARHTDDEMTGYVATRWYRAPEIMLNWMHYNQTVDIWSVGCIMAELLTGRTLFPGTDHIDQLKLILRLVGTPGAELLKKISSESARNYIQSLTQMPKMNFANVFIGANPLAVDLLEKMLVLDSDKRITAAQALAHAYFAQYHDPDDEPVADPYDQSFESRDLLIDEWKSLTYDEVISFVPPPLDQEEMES
Protocol: as §2

[9] = system: TNBS-induced colitis; assay: TNBS-induced colitis in mice (in vivo assay iv); set-up: species or system BDF1 mice; TNBS Ulcer grade / TNBS LP inflammation: scale not given here; settings: SMEDDS vehicle; for Activity in in vivo model of colonic inflammation (histopathology analysis) / Inflammatory cell infiltrate in the reticular and laminar propria zone: TNBS colitis over 2 days; for Ulcer grade and epithelial repair compared to the vehicle control: dosed orally at 5 mg/kg, 2 days; for TNBS LP inflammation / TNBS Ulcer grade: mice, 5 mg/kg orally, conducted over 2 days, histopathology
Protocol: Non-fasted, 10-12 week old, male BDF1 mice are dosed by oral gavage twice daily with either vehicle (5 mL/kg), reference item (Budesonide 2.5 mg/kg) or test compound (1 or 5 mg/kg) one day before (Day −1) stimulation of the inflammatory response by treatment with 2,4,6-trinitrobenzenesulphonic acid (TNBS) (15 mg/mL in 50% ethanol/50% saline). On Day 0 of the study TNBS (200 μL) is administered intra-colonically via a plastic catheter with BID dosing of the vehicle, reference or test compound continuing for 2 or 4 days. During the study animals are weighed every day and stool observations are made and recorded as a score, based on stool consistency. At the time of sacrifice on Day 2 (or Day 4) the large intestine is removed and the length and weight recorded. Sections of the colon are taken for histopathology scoring to determine disease severity.

Chain of c-Src (P12931 whole entry, looked up): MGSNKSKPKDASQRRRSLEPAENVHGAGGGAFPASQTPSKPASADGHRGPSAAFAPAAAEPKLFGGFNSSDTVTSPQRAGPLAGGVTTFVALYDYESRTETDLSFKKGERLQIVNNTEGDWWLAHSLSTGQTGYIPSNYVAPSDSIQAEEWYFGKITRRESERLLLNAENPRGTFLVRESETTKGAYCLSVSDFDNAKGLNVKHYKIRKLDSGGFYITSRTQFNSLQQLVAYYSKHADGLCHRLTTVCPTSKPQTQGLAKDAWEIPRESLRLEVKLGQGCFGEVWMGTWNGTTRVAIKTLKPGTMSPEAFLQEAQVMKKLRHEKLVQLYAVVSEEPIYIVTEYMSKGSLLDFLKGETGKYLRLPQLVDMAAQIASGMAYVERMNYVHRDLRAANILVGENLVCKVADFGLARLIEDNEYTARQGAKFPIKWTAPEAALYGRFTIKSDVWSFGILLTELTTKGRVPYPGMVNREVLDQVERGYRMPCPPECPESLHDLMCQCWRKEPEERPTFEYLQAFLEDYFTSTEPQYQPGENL

| IC50 [1] [nM] | Kd [2] [nM] | Kd [3] [nM] | IC50 [5] [nM] | IC50 [6] [nM] | Kd [8] [nM] | SMILES | inhibition at 5 µg/mL [4] [%] | IC50 [7] [nM] | Activity in in vivo model of colonic inflammation (histopathology analysis) [9] | Inflammatory cell infiltrate in the reticular and laminar propria zone [9] | Ulcer grade and epithelial repair compared to the vehicle control [9] | TNBS LP inflammation [9] | TNBS Ulcer grade [9] |
| --- | --- | --- | --- | --- | --- | --- | --- | --- | --- | --- | --- | --- | --- |
| 52 | 29 | 8.6 | 233 | 4.3 | 26 | COCCOCCOCCOc1cc(Nc2cc(Oc3ccc(NC(=O)Nc4cc(C(C)(C)C)cc(S(C)(=O)=O)c4OC)c4ccccc34)ccn2)cc(OC)c1 [Example 9, 1-(5-(tert-Butyl)-2-methoxy-3-(methylsulfonyl)phenyl)-3-(4-((2-((3-methoxy-5-(2-(2-(2-methoxyethoxy)ethoxy)ethoxy)phenyl)amino)pyridin-4-yl)oxy)naphthalen-1-yl)urea] | 50.8 | 42.7 | significant activity | marked reductions | marked improvements | 2.9 ± 0.3 | 3.6 ± 0.3 |
| 239 | – | – | 1390 | 18.2 | – | COc1c(CC(N)=O)cc(C(C)(C)C)cc1NC(=O)Nc1ccc(Oc2ccnc(Nc3ccccc3)c2)c2ccccc12 [Example 13, 2-(5-(tert-Butyl)-2-methoxy-3-(3-(4-((2-(phenylamino)pyridin-4-yl)oxy)naphthalen-1-yl)ureido)phenyl)acetamide] | 13.9 | 204 | significant activity | marked reductions | marked improvements | 2.8 ± 0.5 | 2.6 ± 0.7 |

The remaining lines, values behind:

| SMILES | IC50 [1] [nM] | Kd [2] [nM] | Kd [3] [nM] | IC50 [5] [nM] | IC50 [6] [nM] | Kd [8] [nM] | inhibition at 5 µg/mL [4] [%] | IC50 [7] [nM] | Activity in in vivo model of colonic inflammation (histopathology analysis) [9] | Inflammatory cell infiltrate in the reticular and laminar propria zone [9] | Ulcer grade and epithelial repair compared to the vehicle control [9] | TNBS LP inflammation [9] | TNBS Ulcer grade [9] |
| --- | --- | --- | --- | --- | --- | --- | --- | --- | --- | --- | --- | --- | --- |
| COc1c(NC(=O)Nc2ccc(Oc3ccnc(Nc4ccccc4)c3)c3ccccc23)cc(C(C)(C)C)cc1[S+](C)[O-] (racemic) [Example 12, 1-(5-(tert-Butyl)-2-methoxy-3-(methylsulfinyl)phenyl)-3-(4-((2-(phenylamino)pyridin-4-yl)oxy)naphthalen-1-yl)urea] | 201 | 18 | 3.6 | 656 | 8.6 | 11 | 23.2 | 67 | – | – | – | – | – |
| COc1c(NC(=O)Nc2ccc(Oc3ccnc(Nc4ccccc4)c3)c3ccccc23)cc(C(C)(C)C)cc1C(=O)NCCN1CCOCC1 [Example 14, 5-(tert-Butyl)-2-methoxy-N-(2-morpholinoethyl)-3-(3-(4-((2-(phenylamino)pyridin-4-yl)oxy)naphthalen-1-yl)ureido)benzamide] | 135 | – | – | 364 | – | – | 51.9 | 39.2 | significant activity | marked reductions | – | 3.6 ± 0.2 | 3.5 ± 0.5 |
| COc1cc(Nc2cc(Oc3ccc(NC(=O)Nc4cc(C(C)(C)C)cc(CC(N)=O)c4OC)c4ccccc34)ccn2)cc(OC)c1 [Example 30, 2-(5-(tert-Butyl)-3-(3-(4-((2-((3,5-dimethoxyphenyl)amino)pyridin-4-yl)oxy)naphthalen-1-yl)ureido)-2-methoxyphenyl)acetamide] | 60 | – | – | 708 | – | – | 48.7 | 94.5 | significant activity | marked reductions | marked improvements | 2.5 ± 0.4 | 3.1 ± 0.4 |
| COc1cc(Nc2cc(Oc3ccc(NC(=O)Nc4cc(C(C)(C)C)cc(P(C)(C)=O)c4OC)c4ccccc34)ccn2)cc(C(N)=O)c1 [Example 37, 3-((4-((4-(3-(5-(tert-butyl)-3-(dimethylphosphoryl)-2-methoxyphenyl)ureido)-naphthalen-1-yl)oxy)pyridin-2-yl)amino)-5-methoxybenzamide] | 32 | 5.1 | 1.2 | 347 | – | 4.5 | 43.2 | 48 | – | – | – | – | – |
| COc1cc(Nc2cc(Oc3ccc(NC(=O)Nc4cc(C(C)(C)C)cc(CNC(C)=O)c4OC)c4ccccc34)ccn2)cc(OC)c1 [Example 44, N-(5-(tert-Butyl)-3-(3-(4-((2-((3,5-dimethoxyphenyl)amino)pyridin-4-yl)oxy)naphthalen-1-yl)ureido)-2-methoxybenzyl)acetamide] | 67 | – | – | 95 | 5.2 | – | 42.8 | 28.3 | – | – | – | – | – |
